Experiments:
Format in all cases: cell-based
LATS1 = biological target: T1, LATS1 (Homo sapiens, UniProt O95835); test: Expression proteomics in THP-1 cells: LATS1 protein level; conditions: LATS1, THP-1 cells
T1 construct: endogenous in cells; host or cells: THP-1
T1 sequence (O95835 1-1130): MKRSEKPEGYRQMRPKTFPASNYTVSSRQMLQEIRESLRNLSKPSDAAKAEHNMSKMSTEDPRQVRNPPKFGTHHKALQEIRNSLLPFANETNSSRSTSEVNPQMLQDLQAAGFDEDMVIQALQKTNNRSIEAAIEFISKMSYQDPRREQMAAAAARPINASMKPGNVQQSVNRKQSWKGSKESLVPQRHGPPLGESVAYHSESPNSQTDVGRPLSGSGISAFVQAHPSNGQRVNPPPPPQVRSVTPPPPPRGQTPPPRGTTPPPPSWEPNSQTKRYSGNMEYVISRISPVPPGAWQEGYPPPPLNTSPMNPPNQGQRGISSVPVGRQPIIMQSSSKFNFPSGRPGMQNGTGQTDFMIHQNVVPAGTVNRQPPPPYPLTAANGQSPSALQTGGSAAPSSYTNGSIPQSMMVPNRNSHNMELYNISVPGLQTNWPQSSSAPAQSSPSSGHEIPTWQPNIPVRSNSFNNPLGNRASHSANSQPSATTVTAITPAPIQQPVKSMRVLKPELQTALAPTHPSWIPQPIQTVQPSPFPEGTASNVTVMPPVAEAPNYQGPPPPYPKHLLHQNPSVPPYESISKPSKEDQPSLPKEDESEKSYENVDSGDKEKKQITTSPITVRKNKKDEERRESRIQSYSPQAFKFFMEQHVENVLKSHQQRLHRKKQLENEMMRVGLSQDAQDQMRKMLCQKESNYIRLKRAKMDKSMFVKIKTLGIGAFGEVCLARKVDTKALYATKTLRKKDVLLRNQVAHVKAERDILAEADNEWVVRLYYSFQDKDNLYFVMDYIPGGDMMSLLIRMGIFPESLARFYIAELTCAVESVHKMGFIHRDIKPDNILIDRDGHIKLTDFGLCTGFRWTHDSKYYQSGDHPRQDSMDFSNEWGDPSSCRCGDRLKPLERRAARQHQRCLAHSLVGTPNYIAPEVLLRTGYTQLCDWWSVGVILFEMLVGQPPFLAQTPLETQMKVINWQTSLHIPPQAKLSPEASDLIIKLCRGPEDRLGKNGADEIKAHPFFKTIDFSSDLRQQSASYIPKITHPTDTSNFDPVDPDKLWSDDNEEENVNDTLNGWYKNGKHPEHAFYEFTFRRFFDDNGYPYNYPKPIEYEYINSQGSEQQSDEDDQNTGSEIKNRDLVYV
Method: (§1) THP-1 cells were seeded at a concentration of 3×10^6 cells in T175 flasks with 60 mL growth medium (RPMI1640+10% FBS). […] of a 10× compound solution prepared in growth medium (DMSO), CEREBLON_PROTAC) was added and the cells were treated for the indicated time points (6 or 24 h) at 37° C., 5% CO2. For harvesting the cells were collected into falcon tubes on ice, centrifuged and washed twice in cold PBS (Life technologies). After the last washing step the supernatant was removed and the pellets were snap-frozen in liquid N2 and stored at −80° C. and lysed in 2% SDS for 3 min at 95° C. in a thermomixer (Thermo Fisher Scientific), followed by digestion of DNA with Benzonase at 37° C. for 1.5 h. Lysate was cleared by centrifugation an protein concentration in supernatant was determined by BCA assay.
(§2) Leukemia 25, 89-100 (2011).
(§3) Samples were dried in vacuo and resuspended in 0.05% trifluoroacetic acid in water. Of the sample, 50% was injected into an Ultimate3000 nanoRLSC (Dionex, Sunnyvale, Calif.) coupled to a Q Exactive HF (Thermo Fisher Scientific). Peptides were trapped on a 5 mm×300 μm C18 column (Pepmap100, 5 μm, 300 Å, Thermo Fisher Scientific) in water with 0.05% TFA at 60° C. Separation was performed on custom 50 cm×[…] (ID) reversed-phase columns (Reprosil) at 55° C. Gradient elution was performed from 2% acetonitrile to 40% acetonitrile in 0.1% formic acid and 3.5% DMSO over 2 hours. Samples were online injected into Q-Exactive HF mass spectrometers operating with a data-dependent top 10 method. MS spectra were acquired by using 60.000 resolution and an ion target of 3×10^6. Higher energy collisional dissociation (HCD) scans were performed with 35% NCE at 30.000 resolution (at m/z 200), and the ion target settings was set to 2×10^5 so as to avoid coalescence (Werner, T. et al. Ion Coalescence of Neutron Encoded TMT 10-Plex Reporter Ions. Anal. Chem. 86, 3594-3601 (2014).
(§4) The first search was performed with 30 parts per million mass tolerance for peptide precursors and 30 mD (HCD) mass tolerance for fragment ions followed by a final search using recalibrated data with a 10 parts per million mass tolerance for peptide precursors and 20 mD (HCD) mass tolerance for fragment ions. Carbamidomethylation of cysteine residues and TMT modification of lysine residues were set as fixed modifications and methionine oxidation, and N-terminal acetylation of proteins and TMT modification of peptide N-termini were set as variable modifications. […]
(§5) Nat Biotech 29, 255-265 (2011). this measure is referred to as ion area Savitski, M. M. et al. Delayed Fragmentation and Optimized Isolation Width Settings for Improvement of Protein Identification and Accuracy of Isobaric Mass Tag Quantification on Orbitrap-Type Mass Spectrometers. […]

BTK = biological target: T2, BTK (Homo sapiens, UniProt Q06187); test: Expression proteomics in THP-1 cells: BTK protein level
T2 construct: endogenous in cells; host or cells: THP-1
T2 sequence (Q06187 whole entry): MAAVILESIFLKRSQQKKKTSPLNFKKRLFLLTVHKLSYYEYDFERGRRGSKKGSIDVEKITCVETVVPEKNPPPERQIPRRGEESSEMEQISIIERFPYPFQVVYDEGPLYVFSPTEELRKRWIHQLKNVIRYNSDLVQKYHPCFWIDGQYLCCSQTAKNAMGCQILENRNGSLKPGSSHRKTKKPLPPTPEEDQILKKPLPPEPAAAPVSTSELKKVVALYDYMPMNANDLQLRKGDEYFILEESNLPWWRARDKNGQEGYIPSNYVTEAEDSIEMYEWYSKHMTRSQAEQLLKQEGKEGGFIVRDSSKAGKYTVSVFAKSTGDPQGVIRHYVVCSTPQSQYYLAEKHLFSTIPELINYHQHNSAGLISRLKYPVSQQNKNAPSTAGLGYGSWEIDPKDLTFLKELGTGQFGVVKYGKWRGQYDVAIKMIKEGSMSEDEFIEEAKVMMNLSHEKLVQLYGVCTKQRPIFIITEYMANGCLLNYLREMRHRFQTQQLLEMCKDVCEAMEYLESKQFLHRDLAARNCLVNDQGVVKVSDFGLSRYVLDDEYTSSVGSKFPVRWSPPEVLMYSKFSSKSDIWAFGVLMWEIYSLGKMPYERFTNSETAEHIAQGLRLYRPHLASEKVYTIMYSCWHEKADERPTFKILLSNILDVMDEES
Method: as §1, §2, §3, §4, §5

RPS6KA1 = biological target: T3, RPS6KA1 (Homo sapiens, UniProt Q15418); test: Expression proteomics in THP-1 cells: RPS6KA1 protein level; conditions: RPS6KA1, THP-1 cells
T3 construct: endogenous in cells; host or cells: THP-1
T3 sequence (Q15418 whole entry): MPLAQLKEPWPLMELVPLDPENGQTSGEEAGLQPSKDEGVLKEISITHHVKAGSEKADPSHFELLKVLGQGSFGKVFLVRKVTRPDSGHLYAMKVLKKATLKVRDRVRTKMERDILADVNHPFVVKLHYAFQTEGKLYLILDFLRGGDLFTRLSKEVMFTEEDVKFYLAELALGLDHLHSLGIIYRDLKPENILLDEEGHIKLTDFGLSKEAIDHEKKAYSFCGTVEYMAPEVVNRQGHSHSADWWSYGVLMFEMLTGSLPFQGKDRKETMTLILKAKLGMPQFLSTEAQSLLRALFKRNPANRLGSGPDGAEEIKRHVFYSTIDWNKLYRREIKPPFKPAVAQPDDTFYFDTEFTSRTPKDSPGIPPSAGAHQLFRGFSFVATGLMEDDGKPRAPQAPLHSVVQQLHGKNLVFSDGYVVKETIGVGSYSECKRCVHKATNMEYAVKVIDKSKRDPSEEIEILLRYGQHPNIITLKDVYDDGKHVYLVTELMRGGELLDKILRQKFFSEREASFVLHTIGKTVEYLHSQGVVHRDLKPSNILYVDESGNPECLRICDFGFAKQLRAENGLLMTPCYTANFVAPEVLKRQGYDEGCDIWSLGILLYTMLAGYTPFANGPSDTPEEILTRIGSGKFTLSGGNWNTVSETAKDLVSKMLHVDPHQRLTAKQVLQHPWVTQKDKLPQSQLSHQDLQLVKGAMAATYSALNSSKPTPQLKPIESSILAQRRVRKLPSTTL
Method: as §1, §2, §3, §4, §5

**Q.** Which results are given for CNC(=O)c1ccccc1Nc1nc(Nc2ccc(N3CCN(CCOCCOCCOCCOCC(=O)Nc4cccc5c4CN(C4CCC(=O)NC4=O)C5=O)CC3)cc2)ncc1Cl.O=CO (stereo not drawn) [CEREBLON_PROTAC, 14-(4-(4-((5-Chloro-4-((2-(methylcarbamoyl)phenyl)amino)pyrimidin-2-yl)amino)phenyl)piperazin-1-yl)-N-(2-(2,6-dioxopiperidin-3-yl)-1-oxoisoindolin-4-yl)-3,6,9,12-tetraoxatetradecan-1-amide formate]?
**A.** log2 rel. fc. to vehicle control (LATS1; 24 h 0.1 μM, n = 1): −1.02; log2 rel. fc. to vehicle control (LATS1; 24 h 0.1 μM, n = 2): −1.01; log2 rel. fc. to vehicle control (LATS1; 24 h 1 μM, n = 1): −1.46; log2 rel. fc. to vehicle control (LATS1; 24 h 1 μM, n = 2): −1.55; log2 rel. fc. to vehicle control (BTK; 24 h 0.1 μM, n = 1): −1.65; log2 rel. fc. to vehicle control (BTK; 24 h 0.1 μM, n = 2): −1.67; log2 rel. fc. to vehicle control (BTK; 24 h 1 μM, n = 1): −2.02; log2 rel. fc. to vehicle control (BTK; 24 h 1 μM, n = 2): −1.86; log2 rel. fc. to vehicle control (RPS6KA1; 24 h 0.1 μM, n = 1): −1.65; log2 rel. fc. to vehicle control (RPS6KA1; 24 h 0.1 μM, n = 2): −1.55; log2 rel. fc. to vehicle control (RPS6KA1; 24 h 1 μM, n = 1): −1.86; log2 rel. fc. to vehicle control (RPS6KA1; 24 h 1 μM, n = 2): −1.93

— US20190210996A1, “NOVEL COMPOUNDS” (GLAXOSMITHKLINE INTELLECTUAL PROPERTY DEVELOPMENT LIMITED, priority 2016, published 2019)
